Results on ten molecules are retold here after patent US4753955A, “Benzimidazole derivatives” (Tokyo Tanabe Company, Ltd., priority 1986, dated 1988).

Each structure is given as a SMILES string.

Data set [1] is described as follows: Stability during storage (60° C., 75% R.H., 6 days), residual rate by thin layer densitometry. The settings on record: storage at 75% r.h. Format: physicochemical. How it is done: In the thin layer densitometry, spots each containing 100 μg of a test sample were applied onto thin layer plates. The spots were developed with a mixture of chloroform and ethanol (10:1, by volume). As the thin layer plates, TLC Plate Silica Gel 60 F254 (10×20 cm, 0.25 mm in thickness, a product of Merck & Co., Inc.) was used. The distance of development was 15 cm. The densitometry was effected by use of a Shimadzu Dichroic Chromatoscanner CS-910 (manufactured by Shimadzu Corporation) at a wavelength of 280 or 300 nm.

In data set [2] the target is T1, (H^+ +K^+)-ATPase (Sus scrofa, UniProt P19156).
T1 construct: prepared from the fundus ventriculi of fresh hog stomachs; from tissue; host or cells: fundus ventriculi of fresh hog stomachs, prepared by the method of Saccomani et al. (J. Biol. Chem. 251, 7690, 1976)
Description: (H^+ +K^+)-ATPase inhibiting activity. The note with it: enzyme from hog fundus ventriculi; incubation with compound 35° to 37° C., 5 to 30 minutes. Format: biochemical. The protocol: The (H^+ +K^+)-ATPase inhibiting activity of the present compounds [I] was determined in the following manner: […] The (H^+ +K^+)-ATPase used in the above test was prepared from the fundus ventriculi of fresh hog stomachs in accordance with the method of Saccomani et al. [The Journal of Biological Chemistry, Vol. 251, No. 23, p. 7690 (1976)]. […] The colorimetric measurement was effected at a wavelength range of from 360 to 400 nm. As a control experiment, the residual activity of (H^+ +K^+)-ATPase was determined in the same manner as above without addition of any test compounds. […] To be more specific, the difference between the colorimetric reading obtained in the control experiment and the colorimetric reading obtained with a test compound is calculated at various molar concentrations, and the difference is divided by the reading of the control experiment to give a rate of inhibition. With inhibition rates thus obtained, a density-inhibition rate curve is plotted, and the IC50 value is determined based on the curve. In the table is also shown, for the purpose of comparison, the (H^+ +K^+)-ATPase inhibiting activity of omeprazole determined in the same manner as above.

Data set [3] has as its system gastric acid secretion. Description: Gastric antisecretory effect (pylorus ligated rats). Format: in vivo. The note with it: Rattus norvegicus; po; male Wistar rats; pylorus ligated 1 hour after administration, total acid after 4 hours; read-out: Gastric Antisecretory Effect, ED50 (inhibition of total gastric acid by 50%). How it is done:
Exactly 1 hour after the completion of the administration, the pyloric regions of their stomachs were ligated. After 4 hours, the total acid contained in the gastric juice of each rat was determined. […] To collect the gastric juice, the rats were killed, and their stomachs were cut open. The total acid in the gastric juice was determined by titrating the juice with aqueous 0.1N sodium hydroxide solution until its pH reached 7.0. As a control experiment, the total acid contained in the gastric juice of rats not administered with the compounds was also determined in the same manner as above. […] In order to determine the ED50 value, the difference in total acid between a group of rats administered with a test compound and a group of rats not administered with any of the test compounds was calculated, and the difference was then divided by the total acid of the latter rats, so as to obtain a rate of inhibition. With inhibition rates thus obtained, a dosage-effect curve was plotted, and the ED50 value was determined on the basis of the curve. In the table is also shown, for the purpose of comparison, the ED50 value of omeprazole determined in the same manner as above.

A short description of data set [4]: Acute toxicity (LD50). The note with it: rat, in vivo, 5 weeks old male Wistar rats. The protocol: Using 5 weeks old male Wistar rats, acute toxicity (LD50) of two representative compounds (compounds obtained in Examples 1 and 8) of the present compounds [I] was tested.
The conditions of data set [5]: stored without any special precautions; background statement; cited from earlier work.
The mark [6] stands for this setting: ip, administered intraperitoneally.

T1 sequence (P19156 2-1034 limits assumed): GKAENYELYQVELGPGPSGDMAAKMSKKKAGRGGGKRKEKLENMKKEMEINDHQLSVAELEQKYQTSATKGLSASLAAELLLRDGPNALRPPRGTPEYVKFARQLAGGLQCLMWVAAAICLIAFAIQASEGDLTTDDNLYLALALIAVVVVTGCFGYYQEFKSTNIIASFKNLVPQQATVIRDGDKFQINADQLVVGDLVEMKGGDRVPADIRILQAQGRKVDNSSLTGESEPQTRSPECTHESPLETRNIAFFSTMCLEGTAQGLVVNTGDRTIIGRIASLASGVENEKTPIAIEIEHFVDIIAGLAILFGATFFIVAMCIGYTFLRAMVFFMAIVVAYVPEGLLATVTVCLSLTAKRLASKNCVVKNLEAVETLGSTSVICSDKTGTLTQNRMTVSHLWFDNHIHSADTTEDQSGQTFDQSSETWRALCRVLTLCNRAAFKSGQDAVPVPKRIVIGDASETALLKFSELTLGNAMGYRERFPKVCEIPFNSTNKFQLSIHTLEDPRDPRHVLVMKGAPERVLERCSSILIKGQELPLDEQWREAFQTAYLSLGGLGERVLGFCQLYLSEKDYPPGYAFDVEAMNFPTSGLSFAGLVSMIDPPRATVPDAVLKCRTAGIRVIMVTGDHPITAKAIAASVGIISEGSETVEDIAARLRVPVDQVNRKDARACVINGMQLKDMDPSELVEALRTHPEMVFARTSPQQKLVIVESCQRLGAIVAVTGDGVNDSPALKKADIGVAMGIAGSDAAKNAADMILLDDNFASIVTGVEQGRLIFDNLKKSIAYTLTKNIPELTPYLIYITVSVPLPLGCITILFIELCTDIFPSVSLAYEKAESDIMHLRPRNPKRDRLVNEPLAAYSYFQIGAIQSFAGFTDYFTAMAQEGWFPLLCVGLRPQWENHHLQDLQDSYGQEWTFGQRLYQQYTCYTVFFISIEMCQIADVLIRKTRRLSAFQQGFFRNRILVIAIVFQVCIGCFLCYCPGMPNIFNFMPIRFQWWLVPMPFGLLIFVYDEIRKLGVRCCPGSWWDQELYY
T1 sequence (P18434 whole entry partner): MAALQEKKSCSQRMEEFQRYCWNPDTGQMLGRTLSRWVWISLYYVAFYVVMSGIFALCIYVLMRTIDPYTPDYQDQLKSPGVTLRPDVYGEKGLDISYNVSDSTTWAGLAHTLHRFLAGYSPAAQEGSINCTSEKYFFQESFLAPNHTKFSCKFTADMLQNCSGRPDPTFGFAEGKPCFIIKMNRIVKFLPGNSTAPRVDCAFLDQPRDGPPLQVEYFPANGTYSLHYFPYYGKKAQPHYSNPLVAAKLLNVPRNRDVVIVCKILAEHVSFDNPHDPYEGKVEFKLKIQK

On to `Cc1cnc(C[S+]([O-])c2nc3cc(OCC4CC4)ccc3[nH]2)c(C)c1` (stereo not drawn) [Example 1, 2-[2-(3,5-dimethyl)pyridylmethylsulfinyl]-5-cyclopropylmethyloxybenzimidazole], for which, in data set [1], the fraction remaining at 144 h was determined as 91%. Besides, in data set [2], the half-inhibitory concentration (IC50) was found to be 1800 µM. Also, the 50% effective dose (ED50) in data set [3] came to 17.8 mg/kg. The LD50 was at least 500 mg/kg in data set [4] (setting [6]) and at least 4000 mg/kg in data set [4] (po, administered orally).

`Cc1ccnc(C[S+]([O-])c2nc3cc(OCC4CC4)ccc3[nH]2)c1` (stereo not drawn) [Example 2, 2-[2-(4-methyl)pyridylmethylsulfinyl]-5-cyclopropylmethyloxybenzimidazole] had a fraction remaining at 144 h in data set [1] of 59%. In data set [2], the IC50 came out at 2100 µM.

`Cc1cnc(C[S+]([O-])c2nc3c(OCC4CC4)cccc3[nH]2)c(C)c1` (stereo not drawn) [Example 3, 2-[2-(3,5-dimethyl)pyridylmethylsulfinyl]-4-cyclopropylmethyloxybenzimidazole] returned a fraction remaining at 144 h in data set [1] of 88%. Further, the IC50 in data set [2] was 900 µM. Further, in data set [3], the ED50 was 19.5 mg/kg.

Take `Cc1cnc(C[S+]([O-])c2nc3cc(OCC4CC4)ccc3[nH]2)c(C)c1C` (stereo not drawn) [Example 4, 2-[2-(3,4,5-trimethyl)pyridylmethylsulfinyl]-5-cyclopropylmethyloxybenzimidazole]: the amount remaining at 144 h in data set [1] was 94%. For the same molecule, the IC50 in data set [2] was 1000 µM. Moreover, the ED50 in data set [3] came out at 22.1 mg/kg.

As for `Cc1cnc(C[S+]([O-])c2nc3c(OCC4CC4)cccc3[nH]2)c(C)c1C` (stereo not drawn) [Example 5, 2-[2-(3,4,5-trimethyl)pyridylmethylsulfinyl]-4-cyclopropylmethyloxybenzimidazole], the share remaining at 144 h in data set [1] turned out to be 86%. Besides, the concentration for half-maximal inhibition (IC50) in data set [2] worked out at 1900 µM.

`COc1c(C)cnc(C[S+]([O-])c2nc3c(OCC4CC4)cccc3[nH]2)c1C` (stereo not drawn) [Example 6, 2-[2-(4-methoxy-3,5-dimethyl)pyridylmethylsulfinyl]-4-cyclopropylmethyloxybenzimidazole]: in data set [1], the fraction remaining at 144 h amounted to 67%. Also, in data set [2], the IC50 turned out to be 1900 µM.

With `COc1c(C)cnc(C[S+]([O-])c2nc3cc(OCC4CC4)ccc3[nH]2)c1C` (stereo not drawn) [Example 7, 2-[2-(4-methoxy-3,5-dimethyl)pyridylmethylsulfinyl]-5-cyclopropylmethyloxybenzimidazole], the share remaining at 144 h in data set [1] came to 37%. For the same molecule, the IC50 in data set [2] was found to be 1700 µM.

In data set [1], `COc1cc(C[S+]([O-])c2nc3cc(OCC4CC4)ccc3[nH]2)ncc1C` (stereo not drawn) [Example 8, 2-[2-(4-methoxy-5-methyl)pyridylmethylsulfinyl]-5-cyclopropylmethyloxybenzimidazole] gave an amount remaining at 144 h of 32%. Besides, the IC50 in data set [2] is 300 µM. In data set [3], the ED50 was 25.9 mg/kg. For the same molecule, the LD50 was at least 500 mg/kg in data set [4] (setting [6]) and at least 4000 mg/kg in data set [4] (po, administered orally).

In data set [1], `COc1cc(C[S+]([O-])c2nc3c(OCC4CC4)cccc3[nH]2)ncc1C` (stereo not drawn) [Example 9, 2-[2-(4-methoxy-5-methyl)pyridylmethylsulfinyl]-4-cyclopropylmethyloxybenzimidazole] returned a share remaining at 144 h of 76%. Besides, the IC50 in data set [2] worked out at 430 µM.

In data set [1], `COc1ccc2[nH]c([S+]([O-])Cc3ncc(C)c(OC)c3C)nc2c1` (stereo not drawn) [Omeprazole, 5-methoxy-2-[2-(4-methoxy-3,5-dimethyl)-pyridylmethylsulfinyl]benzimidazole, reference compound] registered a fraction remaining at 144 h of 5%. For the same molecule, the IC50 in data set [2] was 1800 µM. Also, the median effective dose (ED50) in data set [3] was determined as 30.5 mg/kg. Moreover, the “stability of omeprazole when stored (in words)” value in data set [5] was “degraded at an unexpectedly high rate”.
